Patent publication US8288410B2, “3-substituted quinolinium and 7H-indolo[2,3-c]quinolinium salts as new antiinfectives” (Florida Agricultural and Mechanical University, priority 2008, dated 2012)
Like-named read-outs stand apart in the source and are kept apart here.

Experiments:
[1] = test system: Cryptococcus neoformans ATCC 90113; experiment: Antifungal susceptibility testing, Cryptococcus neoformans; type: cell-based
Method: (§1) Using standard susceptibility tests, the compounds of the invention were determined to be active against MRSA, C. neoformans and several other bacteria, fungi and protozoa. More specifically, the antibacterial and antifungal testing was carried out in the following manner. Cryptococcus neoformans ATCC 90113 and MRSA were obtained from the American Type Culture Collection (Manassas. Va.). Several others including Candida albicans ATTC 90028, Aspergillus fumigatus ATCC 90906 and Mycobacterium intracellulare (M. intracellulare) ATCC 23086 were also procured. Susceptibility testing was performed using a modified version of the National Committee for Clinical Laboratory Standards method. M. intracellulare was tested using a modified method of Franzblau, et al., J. Clin. Microbiol., 1998, 36, 362-366. DMSO solutions of samples were serially diluted in saline, and transferred in duplicate to 96 well microplates. Microbial suspensions were diluted in the broth to afford desired colony forming units/mL according to the 0.5 McFarland Standard [C. Albicans: either Saboraud Dextrose broth (SDB) or RPMI 1640, C. neoformans: SDB, A fumigatus: either YM broth (for MICS) or RPMI-1640+5% Alamar Blue.] After adding microbial cultures to the sampled afforded a final volume of 200 μL and final test concentration starting with 20 μg/mL, plates were read prior to and after final incubation using either fluorescence at 544ex/590em (M intracellulare, A. fumigatus) using the Polarstar galaxy reader (Biotek Instruments, Vermont). Growth (saline only), solvent and blank (media only) controls were included on each test plate. Drug controls [Ciprofloxacin (ICN Biomedicals, Ohio) for bacteria and Amphotericin B (ICN Biomedicals, Ohio) for fungi] were included in each assay. Percent growth was calculated and plotted versus test concentration to afford IC50 (sample concentration that affords 50% inhibition or growth of the organism). The minimum inhibitory concentration (MIC) was determined by visually inspecting the plate, and is defined as the lowest test concentration that allows no detectable growth (for Almar Blue assays, no color change from blue to pink).

MRSA = experiment: Antibacterial susceptibility testing, MRSA; type: cell-based, methicillin resistant Staphylococcus aureus; conditions: for MRS IC50 / MRS MFC / MRS MIC: Table 1; for MRSA IC50 / MRSA MFC / MRSA MIC: Table 2
Method: as §1

[2] = test system: Aspergillus fumigatus ATCC 90906; experiment: Antifungal susceptibility testing, Aspergillus fumigatus; type: cell-based
Method: as §1

[3] = test system: Candida albicans ATTC 90028; experiment: Antifungal susceptibility testing, Candida albicans; type: cell-based
Method: as §1

Structure (SMILES) | Cn IC50 ([1]; Table 1) | Cn MFC ([1]; Table 1) | Cn MIC ([1]; Table 1) | MRS IC50 (MRSA) | MRS MFC (MRSA) | MRS MIC (MRSA) | A fu IC50 ([2]; Table 1, Aspergillus fumigatus) | A fu MFC ([2]; Table 1, Aspergillus fumigatus) | A fu MIC ([2]; Table 1, Aspergillus fumigatus) | Ca IC50 ([3]; Table 1) | Ca MFC ([3]; Table 1) | Ca MIC ([3]; Table 1) | further results
[I-].[O-][S+](c1cc(C(F)(F)F)cc(C(F)(F)F)c1)c1cc2ccccc2[n+](CCCCCc2ccccc2)c1 (stereo not shown) [XYZ-V-13] | 3.0 µg/mL | 20 µg/mL | 5.0 µg/mL | 0.20 µg/mL | 10 µg/mL | 0.63 µg/mL | — ((-) = >20 μg/mL) | — ((-) = >20 μg/mL) | — ((-) = >20 μg/mL) | 10 µg/mL | 20 µg/mL | 20 µg/mL | –
c1ccc(Nc2cc3ccccc3[n+](CCCCCC3CCCCC3)c2)cc1 [JRE-3-19-1] | – | – | – | – | – | – | – | – | – | – | – | – | IC50 ([1]; ATCC90113, Table 2, read-out: Cn IC50): 0.55 µg/mL; MFC ([1]; ATCC90113, Table 2, read-out: Cn MFC): 6.3 µg/mL; MIC ([1]; ATCC90113, Table 2, read-out: Cn MIC): 0.78 µg/mL; IC50 (MRSA; Staphylococcus aureus, Table 2, read-out: MRSA IC50): 0.85 µg/mL; MFC (MRSA; Staphylococcus aureus, Table 2, read-out: MRSA MFC): 6.3 µg/mL; MIC (MRSA; Staphylococcus aureus, Table 2, read-out: MRSA MIC): 1.6 µg/mL; A fu MFC [2]: 25 µg/mL; A fu MIC [2]: 1.6 µg/mL; IC50 ([2]; ATCC90906, Table 2, Aspergillus fumigatus, read-out: A fu IC50): 1 µg/mL; IC50 ([3]; ATTC90028, Table 2, read-out: Ca IC50): 1 µg/mL; MFC ([3]; ATTC90028, Table 2, read-out: Ca MFC): 13 µg/mL; MIC ([3]; ATTC90028, Table 2, read-out: Ca MIC): 3.1 µg/mL
[I-].[O-][S+](c1cccc(Br)c1)c1cc2ccccc2[n+](CCCCCc2ccccc2)c1 (stereo not shown) [XYZ-V-29] | 5.5 µg/mL | 20 µg/mL | 10 µg/mL | 0.90 µg/mL | — ((-) = >20 μg/mL) | 2.5 µg/mL | — ((-) = >20 μg/mL) | — ((-) = >20 μg/mL) | — ((-) = >20 μg/mL) | — ((-) = >20 μg/mL) | — ((-) = >20 μg/mL) | — ((-) = >20 μg/mL) | –
Brc1cccc(Sc2cc3ccccc3[n+](CCCCCc3ccccc3)c2)c1.[I-] [XYZ-III-87] | 2.0 µg/mL | 20 µg/mL | 5.0 µg/mL | 2.0 µg/mL | 20 µg/mL | 5.0 µg/mL | 3.0 µg/mL | — ((-) = >20 μg/mL) | 10 µg/mL | — ((-) = >20 μg/mL) | — ((-) = >20 μg/mL) | — ((-) = >20 μg/mL) | –
[I-].[O-][S+](c1cc2ccccc2[n+](CCCCCc2ccccc2)c1)c1ccccc1F (stereo not shown) [XYZ-IV-100] | – | — ((-) = >20 μg/mL) | — ((-) = >20 μg/mL) | 1.5 µg/mL | — ((-) = >20 μg/mL) | 5.0 µg/mL | — ((-) = >20 μg/mL) | — ((-) = >20 μg/mL) | — ((-) = >20 μg/mL) | — ((-) = >20 μg/mL) | — ((-) = >20 μg/mL) | — ((-) = >20 μg/mL) | –
Fc1ccc(Sc2cc3ccccc3[n+](CCCCCc3ccccc3)c2)cc1.[I-] [XYZ-III-63] | 7.0 µg/mL | — ((-) = >20 μg/mL) | — ((-) = >20 μg/mL) | 5.5 µg/mL | — ((-) = >20 μg/mL) | 10 µg/mL | – | — ((-) = >20 μg/mL) | – | 20 µg/mL | — ((-) = >20 μg/mL) | — ((-) = >20 μg/mL) | –
C[n+]1cc(Sc2ccc(C(F)(F)F)cc2)cc2ccccc21.[I-] [XYZ-III-65] | — ((-) = >20 μg/mL) | — ((-) = >20 μg/mL) | — ((-) = >20 μg/mL) | — ((-) = >20 μg/mL) | — ((-) = >20 μg/mL) | — ((-) = >20 μg/mL) | — ((-) = >20 μg/mL) | — ((-) = >20 μg/mL) | — ((-) = >20 μg/mL) | — ((-) = >20 μg/mL) | — ((-) = >20 μg/mL) | — ((-) = >20 μg/mL) | –
C[n+]1cc(Nc2ccccc2Cl)cc2ccccc21.[I-] [JRE-2-42-1] | – | – | – | – | – | – | – | – | – | – | – | – | Cn IC50 ([1]; Table 2): — ((-) = >20 μg/mL); Cn MFC ([1]; Table 2): — ((-) = >20 μg/mL); Cn MIC ([1]; Table 2): — ((-) = >20 μg/mL); MRSA IC50 (MRSA): — ((-) = >20 μg/mL); MRSA MFC (MRSA): — ((-) = >20 μg/mL); MRSA MIC (MRSA): — ((-) = >20 μg/mL); A fu IC50 ([2]; Table 2, Aspergillus fumigatus): — ((-) = >20 μg/mL); Ca IC50 ([3]; Table 2): — ((-) = >20 μg/mL); Ca MFC ([3]; Table 2): — ((-) = >20 μg/mL); Ca MIC ([3]; Table 2): — ((-) = >20 μg/mL)
COc1ccc(Nc2cc3ccccc3[n+](CCCCCC3CCCCC3)c2)cc1.[I-] [JRE-3-45-1] | – | – | – | – | – | – | – | – | – | – | – | – | Cn IC50 ([1]; Table 2): — ((-) = >20 μg/mL); Cn MFC ([1]; Table 2): — ((-) = >20 μg/mL); Cn MIC ([1]; Table 2): — ((-) = >20 μg/mL); MRSA IC50 (MRSA): — ((-) = >20 μg/mL); MRSA MFC (MRSA): — ((-) = >20 μg/mL); MRSA MIC (MRSA): — ((-) = >20 μg/mL); A fu IC50 ([2]; Table 2, Aspergillus fumigatus): — ((-) = >20 μg/mL); Ca IC50 ([3]; Table 2): — ((-) = >20 μg/mL); Ca MFC ([3]; Table 2): — ((-) = >20 μg/mL); Ca MIC ([3]; Table 2): — ((-) = >20 μg/mL)
[I-].[O-][S+](c1ccc(F)cc1)c1cc2ccccc2[n+](CCCCCc2ccccc2)c1 (stereo not shown) [XYZ-IV-84] | – | — ((-) = >20 μg/mL) | — ((-) = >20 μg/mL) | 0.80 µg/mL | 20 µg/mL | 5.0 µg/mL | — ((-) = >20 μg/mL) | — ((-) = >20 μg/mL) | — ((-) = >20 μg/mL) | — ((-) = >20 μg/mL) | — ((-) = >20 μg/mL) | — ((-) = >20 μg/mL) | –
Fc1cccc(Sc2cc3ccccc3[n+](CCCCCc3ccccc3)c2)c1.[I-] [XYZ-IV-21] | 0.40 µg/mL | 2.5 µg/mL | 0.63 µg/mL | 0.20 µg/mL | 20 µg/mL | 0.63 µg/mL | 0.10 µg/mL | — ((-) = >20 μg/mL) | 0.16 µg/mL | 3.0 µg/mL | 20 µg/mL | 10 µg/mL | –
[I-].[O-][S+](c1ccc(C(F)(F)F)cc1)c1cc2ccccc2[n+](CCCCCc2ccccc2)c1 (stereo not shown) [XYZ-V-27] | 6.0 µg/mL | 20 µg/mL | 10 µg/mL | 0.50 µg/mL | — ((-) = >20 μg/mL) | 1.3 µg/mL | — ((-) = >20 μg/mL) | — ((-) = >20 μg/mL) | — ((-) = >20 μg/mL) | — ((-) = >20 μg/mL) | — ((-) = >20 μg/mL) | — ((-) = >20 μg/mL) | –
O=C(c1ccc(Cl)cc1)c1cc2ccccc2[n+](CCCCCc2ccccc2)c1.[I-] [XYZ-V-62] | 2.0 µg/mL | 10 µg/mL | 5.0 µg/mL | 0.20 µg/mL | — ((-) = >20 μg/mL) | 3.1 µg/mL | 10 µg/mL | — ((-) = >20 μg/mL) | 20 µg/mL | 7.0 µg/mL | — ((-) = >20 μg/mL) | 10 µg/mL | –
Brc1ccccc1Sc1cc2ccccc2[n+](CCCCCc2ccccc2)c1.[I-] [XYZ-III-85] | 1.5 µg/mL | 10 µg/mL | 5.0 µg/mL | 0.95 µg/mL | 10 µg/mL | 2.5 µg/mL | 0.50 µg/mL | — ((-) = >20 μg/mL) | 5.0 µg/mL | 20 µg/mL | — ((-) = >20 μg/mL) | — ((-) = >20 μg/mL) | –
